{"source": "patent US9839648B2", "about": "“Combined anti-acid-fast bacterial agent, screening method for anti-acid-fast bacterial agents, and activity inhibitor of WecA or ortholog thereof” (MICROBIAL CHEMISTRY RESEARCH FOUNDATION, priority 2013, dated 2017)", "key": {"[1]": {"system": "B. subtilis 168 (parent strain)", "assay": "MIC by microbroth dilution method, parent strain"}, "[2]": {"system": "B. subtilis 168/pHYcat-tagO", "assay": "MIC by microbroth dilution method, tagO highly expressing strain"}, "[3]": {"system": "B. subtilis 168/pHYcatA", "assay": "MIC by microbroth dilution method, control strain with pHYcat"}, "[4]": {"system": "B. subtilis 168/pHYcat-mraY", "assay": "MIC by microbroth dilution method, mraY highly expressing strain"}, "[5]": {"system": "B. subtilis CPZB-resistant strain", "assay": "MIC by microbroth dilution method, CPZB-resistant strain"}, "[6]": {"system": "Staphylococcus aureus FDA209P", "assay": "MIC by agar dilution method (other than Mycobacteria)", "format": "cell-based"}, "[7]": {"system": "Mycobacterium tuberculosis H37Rv", "assay": "MIC by agar dilution method (Mycobacteria)", "format": "cell-based", "conditions": "7H10 agar, 37° C., 2 to 14 days", "procedure": "The MIC for Mycobacteria was measured by an agar dilution method."}, "[8]": {"system": "Streptococcus pneumoniae S-223", "assay": "MIC by agar dilution method (other than Mycobacteria)", "format": "cell-based"}, "[9]": {"system": "Bacillus subtilis 168", "assay": "MIC by agar dilution method (other than Mycobacteria)", "format": "cell-based", "conditions": "Mueller-Hinton agar, 37° C., 18 hours"}, "[10]": {"system": "Escherichia coli K-12", "assay": "MIC by agar dilution method (other than Mycobacteria)", "format": "cell-based", "conditions": "K12, Mueller-Hinton agar, 37° C., 18 hours"}, "[11]": {"system": "Enterococcus faecalis JCM 5803", "assay": "MIC by agar dilution method (other than Mycobacteria)", "format": "cell-based", "conditions": "JCM5803, Mueller-Hinton agar, 37° C., 18 hours"}, "[12]": {"system": "B. subtilis 168 strain", "format": "cell-based, Bacillus subtilis", "conditions": "[14C(U)]glycerol, FIGS. 7A, 7C"}, "[13]": {"system": "Ent. faecalis NCTC12203 (VRE)", "assay": "MIC by agar dilution method (other than Mycobacteria)", "conditions": "Enterococcus faecalis, 18 h"}, "[14]": {"molecular_target": "WecA of Mycobacterium smegmatis (Mycolicibacterium smegmatis, UniProt A0R211)", "assay": "biochemical"}, "[15]": {"system": "Str. pneumoniae CR-2", "assay": "MIC by agar dilution method (other than Mycobacteria)"}, "[16]": {"system": "Bacillus subtilis PCI219", "assay": "MIC by agar dilution method (other than Mycobacteria)", "format": "cell-based", "conditions": "Mueller-Hinton agar, 37° C., 18 hours"}, "[17]": {"system": "Staph. aureus MRSA No. 5", "assay": "MIC by agar dilution method (other than Mycobacteria)"}, "[18]": {"molecular_target": "T1, TagO (Bacillus subtilis, UniProt O34753)", "T1 construct": "using disruption liquids of bacterial cells of the 168/pHYcat-mraY strain and the 168/pHYcat-tagO highly expressing these enzymes; expressed in transfected cells; host or cells: Bacillus subtilis 168 carrying plasmid pHYcat-tagO; supernatant of sonicated cells", "assay": "Measurement of TagO activity with disruption liquid of 168/pHYcat-tagO cells", "format": "biochemical", "conditions": "compared with caprazamycin B, tunicamycin, vancomycin, levofloxacin; FIG. 9A", "procedure": "The activities of enzymes MraY and TagO were measured in the following manner using disruption liquids of bacterial cells of the 168/pHYcat-mraY strain and the 168/pHYcat-tagO highly expressing these enzymes and produced in Test Example 3-2.\nAs a control, tunicamycin, vancomycin and levofloxacin were tested similarly.\nThe bacterial cells were cultured in an LB medium until logarithmic growth phase (OD600=0.4) and then collected through centrifuging (5,000 rpm, 10 min), followed by washing twice with a TMS buffer (50 mM Tris-HCl (pH 7.5), 625 mM sucrose, 10 mM MgCl2, 5 mM 3-mercapto-1,2-propanediol, 1 mM PMSF).\nNext, the precipitate was re-suspended in a TMS buffer having a volume 1/40 the initial volume, and the bacterial cells were disrupted through probe sonication (where the following procedure was repeated 10 times on ice: disrupting them for 30 sec and leaving them stand still for 30 sec). […]\nThe TagO activity was measured by allowing 0.02 mL of the following reaction mixture to react at 30° C. for 1 hour.\nNext, the lower layer containing the reaction product was analyzed through thin-layer chromatography (TLC, using as a developing solvent chloroform:methanol:water:concentrated aqueous ammonia=65:35:4:4) and autoradiography, to thereby calculate the enzymatic activity of TagO as a rate with respect to that of the control. […]"}, "[19]": {"system": "Mycobacterium bovis BCG", "assay": "microbe, parasite or virus in culture", "format": "cell-based", "conditions": "Mycobacterium tuberculosis variant bovis BCG"}}}
{"compound": "tunicamycin [reference compound]", "values": [{"measurement": "MIC", "setting": "[1]; B. subtilis 168 (parent strain), microbroth dilution, LB medium, 37° C., 16 hours", "value": 0.25, "unit": "µg/mL"}, {"measurement": "MIC", "setting": "[2]; B. subtilis 168/pHYcat-tagO (tagO highly expressing), microbroth dilution, LB medium", "value": 16, "unit": "µg/mL"}, {"measurement": "MIC", "setting": "[3]; B. subtilis 168/pHYcatA (control strain), microbroth dilution, LB medium", "value": 1, "unit": "µg/mL"}, {"measurement": "MIC", "setting": "[4]; B. subtilis 168/pHYcat-mraY (mraY highly expressing), microbroth dilution, LB medium", "value": 1, "unit": "µg/mL"}, {"measurement": "MIC", "setting": "[5]; B. subtilis CPZB-resistant strain, microbroth dilution, LB medium, 37° C., 16 hours", "value": 4, "unit": "µg/mL"}]}
{"compound": "CCCCc1ccc(NC(=O)C2=CCN(C)[C@@H]([C@H](O[C@@H]3O[C@H](CN)C(O)C3O)[C@H]3O[C@@H](n4ccc(=O)[nH]c4=O)C(O)C3O)C(=O)N2C)cc1", "note": "(stereo partly drawn) [CPZEN-45]", "values": [{"measurement": "MIC", "setting": "[6]; Staphylococcus aureus FDA209P, agar dilution, Mueller-Hinton agar, 37° C., 18 hours", "value": 12.5, "unit": "µg/mL"}, {"measurement": "antibacterial activity (in words)", "setting": "[6]; Staphylococcus aureus FDA209 strain, WecA or ortholog not essential for growth", "value": "no antibacterial activity"}, {"measurement": "MIC", "setting": "[7]", "value": 1.56, "unit": "µg/mL"}, {"measurement": "MIC", "setting": "[1]; Bacillus subtilis, 16 h", "value": 4, "unit": "µg/mL"}, {"measurement": "MIC", "setting": "[2]; Bacillus subtilis", "value": 64, "unit": "µg/mL"}, {"measurement": "MIC", "setting": "[8]; S223, Streptococcus pneumoniae S-223, agar dilution, Mueller-Hinton agar, 37° C., 18 hours", "value": 16, "unit": "µg/mL"}, {"measurement": "antibacterial activity (in words)", "setting": "[8]; Streptococcus pneumoniae S-223 strain, has no WecA or ortholog", "value": "no antibacterial activity"}, {"measurement": "MIC", "setting": "[9]", "value": 4, "unit": "µg/mL"}, {"measurement": "MIC", "setting": "[10]", "value": "> 100", "unit": "µg/mL"}, {"measurement": "MIC", "setting": "[11]", "value": 8, "unit": "µg/mL"}, {"measurement": "incorporation into bacterial cells of glycerol (synthesis of teichoic acid)", "setting": "[12]", "value": "inhibited"}, {"measurement": "MIC", "setting": "[3]; Bacillus subtilis, 168/PHYCATA", "value": 8, "unit": "µg/mL"}, {"measurement": "MIC", "setting": "[13]", "value": 8, "unit": "µg/mL"}, {"measurement": "IC50", "setting": "[14]", "value": 6.39, "unit": "nM"}, {"measurement": "MIC", "setting": "[4]; Bacillus subtilis", "value": 8, "unit": "µg/mL"}, {"measurement": "antibacterial activity (in words)", "setting": "[15]; Str. pneumoniae CR-2 strain, has no WecA or ortholog", "value": "no antibacterial activity"}, {"measurement": "MIC", "setting": "[15]; Streptococcus pneumoniae, CR2, 18 h", "value": 128, "unit": "µg/mL"}, {"measurement": "MIC", "setting": "[16]", "value": 1.56, "unit": "µg/mL"}, {"measurement": "antibacterial activity (in words)", "setting": "[17]; Staph. aureus MRSA No. 5 strain, WecA or ortholog not essential for growth", "value": "no antibacterial activity"}, {"measurement": "MIC", "setting": "[17]; Staphylococcus aureus, MRSA, 18 h", "value": 100, "unit": "µg/mL"}, {"measurement": "enzymatic activity of TagO (inhibition)", "setting": "[18]", "value": "the most strongly"}, {"measurement": "MIC", "setting": "[19]", "value": 2, "unit": "µg/mL"}, {"measurement": "MIC", "setting": "[5]; Bacillus subtilis, 16 h", "value": 4, "unit": "µg/mL"}]}
{"compound": "CN[C@H](CC(C)C)C(=O)N[C@H]1C(=O)N[C@@H](CC(N)=O)C(=O)N[C@H]2C(=O)N[C@H]3C(=O)N[C@H](C(=O)N[C@H](C(=O)O)c4cc(O)cc(O)c4-c4cc3ccc4O)[C@H](O)c3ccc(c(Cl)c3)Oc3cc2cc(c3O[C@@H]2O[C@H](CO)[C@@H](O)[C@H](O)[C@H]2O[C@H]2C[C@](C)(N)[C@H](O)[C@H](C)O2)Oc2ccc(cc2Cl)[C@H]1O", "note": "[vancomycin, reference compound]", "values": [{"measurement": "MIC", "setting": "[1]; Bacillus subtilis, 16 h", "value": 0.25, "unit": "µg/mL"}, {"measurement": "MIC", "setting": "[2]; Bacillus subtilis", "value": 1, "unit": "µg/mL"}, {"measurement": "MIC", "setting": "[3]; Bacillus subtilis, 168/PHYCATA", "value": 0.5, "unit": "µg/mL"}, {"measurement": "MIC", "setting": "[4]; Bacillus subtilis", "value": 0.5, "unit": "µg/mL"}, {"measurement": "MIC", "setting": "[5]; Bacillus subtilis, 16 h", "value": 0.25, "unit": "µg/mL"}]}
